In ChEMBL document CHEMBL3046575, “Synthesis and studies on antidepressant activity of 2,4,6-trihydroxychalcone derivatives” (2012):
Active and inactive are the calls of the source. The rule behind the calls is not given here.

Each compound was assayed on Mus musculus (assay: Antidepressant activity in Mus musculus (mouse) assessed as reduction in immobility time at 10 to 40 mg/kg, ip administered 30 min before test by tail suspension test). Conditions: not given.
Format: functional, organism-based

SMILES	Activity
O=C(/C=C/c1ccccc1Br)c1c(O)cc(O)cc1O	Active

Each compound was assayed on Mus musculus (assay: Antidepressant activity in Mus musculus Kunming (mouse) assessed as reduction in immobility time at 10 to 40 mg/kg, ip administered 30 min before test by forced swim test). Conditions: not given.
Format: functional, organism-based

SMILES	Activity
O=C(/C=C/c1ccccc1Br)c1c(O)cc(O)cc1O	Active

What follows are compounds tested on Mus musculus (assay: Antidepressant activity in Mus musculus Kunming (mouse) assessed as reduction in immobility time at 10 mg/kg, ip administered 30 min before test by forced swim test relative to control). Conditions: route intraperitoneal.
Format: functional
Parameters: scale not given: the % may be the effect or the level left

SMILES	Activity [%]
O=C(/C=C/c1ccc(Cl)cc1)c1c(O)cc(O)cc1O [4-CHLORO-2',4',6'-TRIHYDROXYCHALCONE]	27.07
Cc1ccc(/C=C/C(=O)c2c(O)cc(O)cc2O)cc1C	13.31
O=C(/C=C/c1ccccc1Cl)c1c(O)cc(O)cc1O	18.72
O=C(/C=C/c1ccc(Cl)cc1Cl)c1c(O)cc(O)cc1O	27.43
O=C(/C=C/c1ccccc1Br)c1c(O)cc(O)cc1O	50.04
O=C(/C=C/c1ccc(O)cc1)c1c(O)cc(O)cc1O [4,2',4',6'-TETRAHYDROXYCHALCONE]	28.51
O=C(/C=C/c1cccc(Cl)c1)c1c(O)cc(O)cc1O	27.57
O=C(/C=C/c1ccc(F)cc1)c1c(O)cc(O)cc1O [4-FLUORO-2',4',6'-TRIHYDROXYCHALCONE]	4.39
Cc1ccc(/C=C/C(=O)c2c(O)cc(O)cc2O)cc1	17.35
O=C(/C=C/c1cccc(Br)c1)c1c(O)cc(O)cc1O	26.64
COc1ccc(/C=C/C(=O)c2c(O)cc(O)cc2O)cc1 [4-METHOXYL-2',4',6'-TRIHYDROXYCHALCONE]	11.09
O=C(/C=C/c1ccc(O)c(O)c1)c1c(O)cc(O)cc1O [3,4,2',4',6'-PENTAHYDROXYCHALCONE]	29.09
COc1cc(/C=C/C(=O)c2c(O)cc(O)cc2O)ccc1O	22.89
O=C(/C=C/c1cccc(F)c1)c1c(O)cc(O)cc1O	17.21
O=C(/C=C/c1ccc(Br)cc1)c1c(O)cc(O)cc1O [4-BROMO-2',4',6'-TRIHYDROXYCHALCONE]	19.29
COc1ccc(/C=C/C(=O)c2c(O)cc(O)cc2O)cc1OC	17.57
CNCCC(Oc1ccc(C(F)(F)F)cc1)c1ccccc1 (stereo not given) [FLUOXETINE]	58.68
O=C(/C=C/c1ccccc1F)c1c(O)cc(O)cc1O	33.55
